Measurements reported in ChEMBL document CHEMBL4396962, “Discovery of novel steroidal histamine H3 receptor antagonists/inverse agonists. Part 2. Versatile steroidal carboxamide derivatives” (Bioorg Med Chem Lett, 2019).
pIC50, pKi: −log10 of the molar value. Values after ≈ are worked out from the molar mass of the structure shown.

Legend:
[1] = Fraction of drug metabolized in human microsomes; format: ADME, Microsome; settings: read-out: Fm
[2] = target: Muscarinic acetylcholine receptor; test: Displacement of [3H]quinuclidinyl benzilate from Wistar rat cortex muscarinic acetylcholine receptor by liquid scintillation counter method
[3] = Fraction of drug metabolized in rat microsomes; format: ADME, Microsome; settings: read-out: Fm
Histamine H3 receptor [4] = target: Histamine H3 receptor (Homo sapiens, UniProt Q9Y5N1); test: Displacement of [3H]methyl- N-alpha methylhistamine dihydrochloride from human recombinant H3 receptor expressed in CHOK1 cells measured after 30 mins by liquid scintillation counter method; format: cell-based
Sequence of Histamine H3 receptor (Homo sapiens, UniProt Q9Y5N1) (Q9Y5N1 whole entry): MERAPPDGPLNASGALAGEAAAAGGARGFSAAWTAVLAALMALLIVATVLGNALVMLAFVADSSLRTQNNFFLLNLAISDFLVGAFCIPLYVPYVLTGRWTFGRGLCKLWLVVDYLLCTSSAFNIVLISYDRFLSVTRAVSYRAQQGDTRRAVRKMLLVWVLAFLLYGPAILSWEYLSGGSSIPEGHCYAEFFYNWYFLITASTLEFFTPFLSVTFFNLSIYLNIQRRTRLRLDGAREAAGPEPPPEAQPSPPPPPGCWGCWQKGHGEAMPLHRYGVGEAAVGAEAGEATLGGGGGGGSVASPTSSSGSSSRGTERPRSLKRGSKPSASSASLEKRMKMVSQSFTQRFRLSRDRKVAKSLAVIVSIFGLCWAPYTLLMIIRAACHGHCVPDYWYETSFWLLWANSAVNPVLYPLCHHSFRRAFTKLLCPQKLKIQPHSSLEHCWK

Histamine H3 receptor [5] = target: Histamine H3 receptor (Rattus norvegicus, UniProt Q9QYN8); test: Displacement of [3H]methyl- N-alpha methylhistamine dihydrochloride from Sprague-Dawley rat cerebral cortex H3 receptor measured after 30 mins by scintillation counter method
Sequence of Histamine H3 receptor (Rattus norvegicus, UniProt Q9QYN8) (Q9QYN8 whole entry): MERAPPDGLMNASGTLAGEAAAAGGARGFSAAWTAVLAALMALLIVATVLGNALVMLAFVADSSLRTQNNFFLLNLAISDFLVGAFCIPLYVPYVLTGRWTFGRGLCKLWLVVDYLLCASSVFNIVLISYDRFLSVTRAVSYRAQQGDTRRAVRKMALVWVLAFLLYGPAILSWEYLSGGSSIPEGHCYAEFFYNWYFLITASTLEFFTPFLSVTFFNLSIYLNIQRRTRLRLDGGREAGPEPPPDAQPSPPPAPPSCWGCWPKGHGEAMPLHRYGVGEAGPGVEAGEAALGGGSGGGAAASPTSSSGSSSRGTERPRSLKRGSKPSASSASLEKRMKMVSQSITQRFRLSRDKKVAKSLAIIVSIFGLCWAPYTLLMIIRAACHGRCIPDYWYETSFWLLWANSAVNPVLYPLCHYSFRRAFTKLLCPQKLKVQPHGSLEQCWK

[6] = target: Histamine H3 receptor (Rattus norvegicus) (UniProt Q9QYN8); test: Displacement of [3H]methyl- N-alpha methylhistamine dihydrochloride from Sprague-Dawley rat cerebral cortex H3 receptor measured after 30 mins by scintillation counter method relative to control
Sequence of Histamine H3 receptor (Rattus norvegicus) (Q9QYN8 whole entry): as above

Rattus norvegicus [7] = test: In vivo antagonist activity at H3 receptor in po dosed Wistar rat assessed as inhibition of imetit induced dipsogenia preincubated for 30 mins followed by imetit administration at 3 mg/kg,sc; format: functional
[8] = target: Voltage-gated inwardly rectifying potassium channel KCNH2 (Homo sapiens, UniProt Q12809); test: Inhibition of human ERG
Sequence of Voltage-gated inwardly rectifying potassium channel KCNH2 (Q12809 whole entry): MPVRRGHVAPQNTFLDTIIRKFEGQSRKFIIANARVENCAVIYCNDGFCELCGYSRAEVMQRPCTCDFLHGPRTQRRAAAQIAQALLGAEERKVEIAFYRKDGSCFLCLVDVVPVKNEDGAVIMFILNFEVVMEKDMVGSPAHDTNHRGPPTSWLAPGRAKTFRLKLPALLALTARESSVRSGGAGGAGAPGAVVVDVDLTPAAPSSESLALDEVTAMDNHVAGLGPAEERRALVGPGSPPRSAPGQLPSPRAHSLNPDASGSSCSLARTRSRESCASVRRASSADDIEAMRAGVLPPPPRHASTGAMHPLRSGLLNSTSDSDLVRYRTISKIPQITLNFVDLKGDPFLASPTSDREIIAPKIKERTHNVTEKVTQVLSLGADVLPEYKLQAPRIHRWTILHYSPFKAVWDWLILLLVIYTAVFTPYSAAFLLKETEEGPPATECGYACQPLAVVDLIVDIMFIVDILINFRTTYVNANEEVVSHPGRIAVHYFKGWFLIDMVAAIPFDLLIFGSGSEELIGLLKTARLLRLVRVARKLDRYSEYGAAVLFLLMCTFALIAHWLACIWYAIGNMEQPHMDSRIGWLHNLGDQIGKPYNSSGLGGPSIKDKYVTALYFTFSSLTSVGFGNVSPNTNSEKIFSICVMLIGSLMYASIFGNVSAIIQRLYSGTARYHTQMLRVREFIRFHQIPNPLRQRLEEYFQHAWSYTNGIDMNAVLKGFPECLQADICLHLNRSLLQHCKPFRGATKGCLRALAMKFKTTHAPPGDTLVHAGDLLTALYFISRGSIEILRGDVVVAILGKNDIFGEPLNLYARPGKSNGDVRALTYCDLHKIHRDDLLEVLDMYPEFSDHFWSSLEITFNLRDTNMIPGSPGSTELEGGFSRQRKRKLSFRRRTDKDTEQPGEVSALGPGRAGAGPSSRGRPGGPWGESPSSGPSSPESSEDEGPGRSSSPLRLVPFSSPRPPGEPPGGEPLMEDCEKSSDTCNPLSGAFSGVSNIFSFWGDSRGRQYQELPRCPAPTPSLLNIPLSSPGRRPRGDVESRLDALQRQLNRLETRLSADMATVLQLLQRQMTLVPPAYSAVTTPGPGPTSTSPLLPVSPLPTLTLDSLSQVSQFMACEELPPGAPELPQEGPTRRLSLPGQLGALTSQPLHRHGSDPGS

[9] = Partition coefficient, logD of compound at pH 7.4; format: physicochemical; settings: octanol/water
[10] = Lipophilicity, logP of compound; format: physicochemical; settings: octanol/water
[11] = Solubility of compound in DMSO; format: physicochemical
[12] = Kinetic solubility of compound; format: physicochemical; settings: read-out: Kinetic_solubility
[13] = Tmax in Wistar rat brain at 10 mg/kg, po measured after 5 hrs by HPLC-MS/MS analysis; format: ADME, organism-based
[14] = Ratio of AUC (0 to infinity) in Wistar rat brain to plasma at 10 mg/kg, po measured after 5 hrs by HPLC-MS/MS analysis; format: ADME, organism-based
Rattus norvegicus [15] = test: Cognitive enhancement in scopolamine-induced amnesia Wistar rat model assessed as increase in memory retrieval at 3 mg/kg, po with scopolamine treatment for 23 hrs followed by compound administration measured after 1 hr by water labyrinth relative to control; format: functional
[16] = target: Muscarinic acetylcholine receptor (Rattus norvegicus) (UniProt P08482+P08483+P08485+P08911+P10980); test: Displacement of [3H]quinuclidinyl benzilate from Wistar rat cortex muscarinic acetylcholine receptor at 3 uM by liquid scintillation counter method relative to control
Rattus norvegicus [17] = species: Rattus norvegicus; test: Selectivity index, ratio of Ki for Wistar rat cortex muscarinic acetylcholine receptor to Ki for Sprague-Dawley rat cerebral cortex H3 receptor
Rattus norvegicus [18] = test: In vivo antagonist activity at Wistar rat H3 receptor assessed as inhibition of imetit-induced dipsogenia at 30 mg/kg, po for 30 mins followed by imetit administration at 3 mg/kg, sc, relative to control; format: functional
Rattus norvegicus [19] = test: In vivo antagonist activity at H3 receptor in ip dosed Wistar rat assessed as inhibition of imetit induced dipsogenia preincubated for 30 mins followed by imetit administration at 3 mg/kg,sc; format: functional

Row | Compound | metabolised [1] [%] | metabolised [3] [%] | pKi (Histamine H3 receptor [4]) | pKi (Histamine H3 receptor [5]) | Activity [16] [%] | pIC50 [8] | other results
1 | C[C@]12CC[C@@H]3c4ccc(OCCCN5CCCC5=O)cc4CC[C@H]3[C@@H]1CC[C@@H]2N1CCCC1 | 77 | 85 | 8.05 | 7.66 | – | – | Ki [2]: 700 nM
2 | CCN(CC)C(=O)[C@@H]1CC(=O)[C@@]2(C)CC[C@@H]3c4ccc(OCCCN5CCC[C@@H]5C)cc4CC[C@H]3[C@H]12 | – | – | 7.47 | – | – | – | inhibition [6]: 44%
3 | CCNC(=O)[C@H]1CC(=O)[C@@]2(C)CC[C@@H]3c4ccc(OCCCN5CCC[C@@H]5C)cc4CC[C@H]3[C@H]12 | – | – | 7.68 | – | – | – | –
4 | C[C@@H]1CCCN1CCCOc1ccc2c(c1)CC[C@H]1[C@@H]3[C@@H](C(=O)NCC4CC4)CC[C@@]3(C)CC[C@H]21 | 90 | 76 | 8.05 | 7.89 | 27 | 5.39 | –
5 | CCNC(=O)[C@H]1CC(=O)[C@@]2(C)CC[C@@H]3c4ccc(OCCCN5CCC(F)(F)CC5)cc4CC[C@H]3[C@H]12 | – | – | 5.86 | – | – | – | –
6 | CCNC(=O)[C@H]1CC(=O)[C@@]2(C)CC[C@@H]3c4ccc(OCCCN5CC[C@@H](F)C5)cc4CC[C@H]3[C@H]12 | – | – | 6.64 | – | – | – | –
7 | C[C@@H]1CCCN1CCCOc1ccc2c(c1)CC[C@@H]1[C@@H]2CC[C@]2(C)[C@@H](N3CCCC3=O)CC[C@@H]12 | – | – | – | 6.87 | 51 | – | –
8 | CCNC(=O)[C@H]1CC[C@@]2(C)CC[C@@H]3c4ccc(OCCCN5CCC[C@H]5C)cc4CC[C@H]3[C@H]12 | 62 | 66 | 8.05 | 7.62 | 24 | 5.39 | ED50 (Rattus norvegicus [7]): 2.26 to 2.3 mg/kg
9 | C[C@@H]1CCCN1CCCOc1ccc2c(c1)CC[C@H]1[C@@H]3[C@@H](C(=O)NCC4CCC4)CC[C@@]3(C)CC[C@H]21 | 48 | 50 | 8.30 | 7.72 | – | – | Ki [2]: 1708 nM
10 | C[C@@H]1CCCN1CCCOc1ccc2c(c1)CC[C@@H]1[C@@H]2CC[C@]2(C)[C@@H](C(=O)N3CCCC3)CC[C@@H]12 | – | – | 8.70 | 7.74 | – | – | Ratio Ki (Rattus norvegicus [17]): 25; Ki [2]: 454 nM
11 | C[C@H]1CCCN1CCCOc1ccc2c(c1)CC[C@H]1[C@@H]3[C@H](C(=O)N4CCCC4)CC(=O)[C@@]3(C)CC[C@H]21 | 75 | 85 | 7.52 | 8.05 | 16 | 4.10 | ED50 (Rattus norvegicus [7]): 0.6 mg/kg
12 | C[C@]12CC[C@@H]3c4ccc(OCCCN5CCCC5)cc4CC[C@H]3[C@@H]1CC[C@@H]2N1CCCC1 | – | – | – | – | – | 5.12 | inhibition (INH) (Rattus norvegicus [18]): 19%; ED50 (Rattus norvegicus [19]): 12 mg/kg; Ki [2]: 110 nM
13 | CCNC(=O)[C@@H]1CC(=O)[C@@]2(C)CC[C@@H]3c4ccc(OCCCN5CCC[C@H]5C)cc4CC[C@H]3[C@H]12 | – | – | 7.37 | – | – | – | –
14 | CC(=O)N[C@@H]1CC(=O)[C@@]2(C)CC[C@@H]3c4ccc(OCCCN5CCC[C@H]5C)cc4CC[C@H]3[C@H]12 | 85 | 46 | 8.00 | 7.41 | 20 | – | –

The next lines start with results.

Row | metabolised [1] [%] | metabolised [3] [%] | pKi (Histamine H3 receptor [4]) | pKi (Histamine H3 receptor [5]) | Activity [16] [%] | Compound | pIC50 [8] | other results
15 | 99 | 99 | 8.52 | 8.05 | – | CCNC(=O)[C@H]1CC(=O)[C@@]2(C)CC[C@@H]3c4ccc(OCCCN5CCC[C@H]5C)cc4CC[C@H]3[C@H]12 | 4.76 | ED50 (Rattus norvegicus [7]): 0.47 mg/kg; logD [9]: 1.7; logP [10]: 4.2; solubility [11]: > 50000 µM; solubility kinetic [12]: 250 µM (≈ 117 µg/mL); Ki [2]: 4700 nM; Tmax [13]: 1 h; Kp at 5 h [14]: 0.24; Activity (Rattus norvegicus [15]): 52.3%
16 | 96 | 96 | 8.05 | 7.55 | 7 | CCNC(=O)[C@H]1C[C@H](OC)[C@@]2(C)CC[C@@H]3c4ccc(OCCCN5CCC[C@H]5C)cc4CC[C@H]3[C@H]12 | 4.94 | ED50 (Rattus norvegicus [7]): 2.5 mg/kg
17 | – | – | 6.28 | – | – | CCNC(=O)[C@H]1CC(=O)[C@@]2(C)CC[C@@H]3c4ccc(OCCCN5CCC(F)CC5)cc4CC[C@H]3[C@H]12 | – | –
18 | – | – | – | – | 6 | N-ethyl-2-((8R,9S,13S,14S,15R,17S)-17-methoxy-13-methyl-3-(3-((R)-2-methylpyrrolidin-1-yl)propoxy)-7,8,9,11,12,13,14,15,16,17-decahydro-6H-cyclopenta[a]phenanthren-15-yl)acetamide | – | –
19 | – | – | 6.63 | – | 17 | CCNC(=O)[C@@H]1CC(=O)[C@@]2(C)CC[C@@H]3c4ccc(OCCCCN5CCC[C@@H]5C)cc4CC[C@H]3[C@H]12 | – | –
20 | – | – | 6.59 | – | 4 | CCNC(=O)[C@@H]1CC(=O)[C@@]2(C)CC[C@@H]3c4ccc(OCCN5CCC[C@@H]5C)cc4CC[C@H]3[C@H]12 | – | –
